Measured values as given in patent US20220288057A1, “CONJOINT THERAPY FOR TREATING SEIZURE DISORDERS” (XENON PHARMACEUTICALS INC., priority 2021, published 2022).
Where two headings read alike, the source gives them in different places.

Experiments:
[1] = Terminal plasma and brain concentrations in AC-MES studies (UHPLC-MS/MS); type: in vivo, mouse
Procedure: Sample Collection and Preparation: Mice were anesthetized by isoflurane inhalation (according to SOP TECH-018) until they reached a surgical plane of anesthesia. Then a syringe (1 mL syringe with a 22 gauge needle) was inserted under the sternum into the heart (according to SOP TECH-031). Approximately 0.5 mL of blood was collected, deposited into a K2EDTA tube, and stored on ice. Animals were then euthanized by cervical dislocation. Brains were removed, placed into a pre-weighed vial, and snap frozen on dry ice. At the end of the sample collection, blood was centrifuged at 4000 rpm for 10 minutes at 4° C., and the plasma pipetted into a labeled tube. All samples were stored in a −80° C. freezer until the time of bioanalysis.
Plasma Samples: Extraction of plasma samples was carried out by protein precipitation using acetonitrile. Diluted plasma samples (50 μL) were mixed with 50 μL of internal standard (IS) solution in 1:1 acetonitrile:water (v:v) followed by addition of 200 μL of acetonitrile. Samples were vortexed for 30 seconds, centrifuged at 13,000 rpm for 20 minutes, decanted into a 96-well plate and further centrifuged at 4000 rpm for 20 minutes. The samples were analyzed by ultra-high performance liquid chromatography electrospray ionization tandem mass spectrometry (UHPLC-ESI-MS/MS) as described in the bioanalysis procedure below.
Brain Samples: Prior to extraction, pre-weighed whole brains were homogenized in 1:1 acetonitrile:water (v:v) (2 mL per mouse brain) using an IKA T18 Ultra-Turrax Homogenizer at the setting of 4 for approximately 1 minute. The homogenate was centrifuged at 13,000 rpm for 20 minutes and 50 μL of the supernatant were treated exactly as described in above for plasma samples.
Bioanalysis Procedures: All samples, including plasma and brain homogenate extracts (including calibration standards and quality control (QC) samples prepared in K2EDTA mouse plasma), were extracted by protein precipitation. To each 50 μL aliquot of sample, 50 μL of IS solution (2500 ng/mL of Lacosamide in water:acetonitrile (1:1)) and 50 μL of 6% (v:v) phosphoric acid in water were added, then 200 μL acetonitrile was added. The samples in 1.7 mL tubes were vortex-mixed then centrifuged for 20 minutes at 13,000 rpm. Fifty microliters of the supernatant was mixed with 150 μL of water:acetonitrile (1:1) in a 96 well plate, which was centrifuged post-mixing for 20 minutes at 4000 rpm. The samples were then ready for UHPLC-MS/MS analysis.
Samples were analyzed for Compound A by a research-grade UHPLC-MS/MS method using the conditions listed below.
Samples were analyzed for Lacosamide by a research-grade UHPLC-MS/MS method using the conditions listed below.
At least three QC samples, one at each concentration, had to show back-calculated values within ±20% of their nominal concentrations for the whole sample batch to be valid.
(§1) The Blinding and Randomization, Clinical Observations, AC-MES Assay, Sample Collection and Preparation, Plasma and Brain Samples Analysis, and Bioanalysis Procedures in Example 4 were identical to those used in Example 2.
Sample concentration determination and Data Processing and Analysis in Example 4 was identical to Example 2.

[2] = system: CF-1 mouse; experiment: Clinical observations / behavioral signs in AC-MES studies; type: in vivo
Procedure: Any qualitative changes from normal behavior were recorded.
Five oral (PO) doses of Compound A were each tested in the AC-MES model. Thirty minutes after administration of Compound A at 1 mg/kg (n=8), 3 mg/kg (n=8), 5 mg/kg (n=16), 7.5 mg/kg (n=7), and 10 mg/kg (n=17) via oral gavage to male CF-1 mice (body weights 28.2 to 43.8 g), the mice underwent a 60 Hz corneal electrical stimulus (0.2 seconds duration, 40 mA). This stimulus elicited a tonic hindlimb extension in all vehicle-dosed animals. […] An observational neurological assessment (qualitative test) was also conducted at the time of testing as a tolerability screen. Terminal plasma and brain samples were collected from all animals to obtain the levels of Compound A concentration, and to understand the relationship between efficacy and drug concentration.
as §1

Q: For `NC(=O)O[C@@H](Cn1ncnn1)c1ccccc1Cl` [Cenobamate, reference compound], which concentration at 2 h ([1]; CF-1, mouse, in vivo, 3 mg/kg, Study 4D, Cenobamate 3 mg/kg single oral dose, 2 h pre-treatment, CF-1 mice, read-out: Mean Brain) is on record?
A: 8.7 µM

Q: And the concentration at 2 h ([1]; CF-1, mouse, in vivo, 3 mg/kg, Study 4D, Cenobamate 3 mg/kg single oral dose, 2 h pre-treatment, CF-1 mice, read-out: Mean Plasma)?
A: 29.6 µM

Q: And the concentration at 2 h ([1]; CF-1, mouse, in vivo, 3 mg/kg, Study 4E, Cenobamate 3 mg/kg single oral dose, 2 h pre-treatment, CF-1 mice, read-out: Mean Brain)?
A: 12.2 µM

Q: And the concentration at 2 h ([1]; CF-1, mouse, in vivo, 3 mg/kg, Study 4E, Cenobamate 3 mg/kg single oral dose, 2 h pre-treatment, CF-1 mice, read-out: Mean Plasma)?
A: 27.7 µM

Q: And the concentration at 2 h ([1]; CF-1, mouse, in vivo, 5 mg/kg, Study 4E, Cenobamate 5 mg/kg single oral dose, 2 h pre-treatment, CF-1 mice, read-out: Mean Brain)?
A: 22.1 µM

Q: And the concentration at 2 h ([1]; CF-1, mouse, in vivo, 5 mg/kg, Study 4E, Cenobamate 5 mg/kg single oral dose, 2 h pre-treatment, CF-1 mice, read-out: Mean Plasma)?
A: 53.6 µM

Q: And the concentration at 2 h ([1]; CF-1, mouse, in vivo, 5 mg/kg, Study 4F, Cenobamate 5 mg/kg PO, 2 h, alone, read-out: mean plasma concentration)?
A: 31.3 µM

Q: And the concentration at 2 h ([1]; CF-1, mouse, in vivo, 5 mg/kg, Study 4F, Cenobamate 5 mg/kg PO alone, 2 h pre-treatment, CF-1 mice, read-out: Mean Brain)?
A: 12 µM

Q: What about the concentration at 2 h ([1]; CF-1, mouse, in vivo, 5 mg/kg, Study 4F, Cenobamate 5 mg/kg PO alone, 2 h pre-treatment, CF-1 mice, read-out: Mean Plasma) of the same compound?
A: 31.3 µM

Q: What about the concentration at 2 h ([1]; CF-1, mouse, in vivo, 7.5 mg/kg, Cenobamate 7.5 mg/kg PO, 2 h, alone, read-out: mean plasma concentration) of the same compound?
A: 78.1 µM

Q: What about the concentration at 2 h ([1]; CF-1, mouse, in vivo, 7.5 mg/kg, Study 4E, Cenobamate 7.5 mg/kg single oral dose, 2 h pre-treatment, CF-1 mice, read-out: Mean Brain) of the same compound?
A: 34.5 µM

Q: And the concentration at 2 h ([1]; CF-1, mouse, in vivo, 7.5 mg/kg, Study 4E, Cenobamate 7.5 mg/kg single oral dose, 2 h pre-treatment, CF-1 mice, read-out: Mean Plasma)?
A: 78.1 µM

Q: And the concentration at 2 h ([1]; CF-1, mouse, in vivo, 10 mg/kg, Cenobamate 10 mg/kg PO, 2 h, alone, read-out: mean plasma concentration)?
A: 87 µM

Q: What about the concentration at 2 h ([1]; CF-1, mouse, in vivo, 10 mg/kg, Study 4D, Cenobamate 10 mg/kg single oral dose, 2 h pre-treatment, CF-1 mice, read-out: Mean Brain) of the same compound?
A: 26.8 µM

Q: And the concentration at 2 h ([1]; CF-1, mouse, in vivo, 10 mg/kg, Study 4D, Cenobamate 10 mg/kg single oral dose, 2 h pre-treatment, CF-1 mice, read-out: Mean Plasma)?
A: 87 µM

Q: And the concentration at 2 h ([1]; CF-1, mouse, in vivo, Study 4G, analyte Cenobamate, 5 mg/kg + 0.5 mg/kg Compound A, read-out: mean total plasma concentration)?
A: 41.1 µM

Q: And the concentration at 2 h ([1]; CF-1, mouse, in vivo, Study 4G, analyte Cenobamate, 5 mg/kg + 1 mg/kg Compound A, read-out: mean total plasma concentration)?
A: 39.7 µM

Q: What about the Kp at 2 h ([1]; CF-1, mouse, in vivo, po, 3 mg/kg, Study 4D, Cenobamate 3 mg/kg single oral dose, read-out: B/P Ratio (brain to plasma ratio)) of the same compound?
A: 0.29

Q: What about the Kp at 2 h ([1]; CF-1, mouse, in vivo, po, 3 mg/kg, Study 4E, Cenobamate 3 mg/kg single oral dose, read-out: B/P Ratio (brain to plasma ratio)) of the same compound?
A: 0.44

Q: And the Kp at 2 h ([1]; CF-1, mouse, in vivo, po, 5 mg/kg, Study 4E, Cenobamate 5 mg/kg single oral dose, read-out: B/P Ratio (brain to plasma ratio))?
A: 0.41

Q: And the Kp at 2 h ([1]; CF-1, mouse, in vivo, po, 5 mg/kg, Study 4F, Cenobamate 5 mg/kg PO alone, read-out: B/P Ratio (brain to plasma ratio))?
A: 0.38

Q: What about the Kp at 2 h ([1]; CF-1, mouse, in vivo, po, 7.5 mg/kg, Study 4E, Cenobamate 7.5 mg/kg single oral dose, read-out: B/P Ratio (brain to plasma ratio)) of the same compound?
A: 0.44

Q: And the Kp at 2 h ([1]; CF-1, mouse, in vivo, po, 10 mg/kg, Study 4D, Cenobamate 10 mg/kg single oral dose, read-out: B/P Ratio (brain to plasma ratio))?
A: 0.31

Q: And the Kp ([1]; CF-1, mouse, in vivo, po, 30 mg/kg, Study 4D, Cenobamate 30 mg/kg single oral dose, read-out: B/P Ratio (brain to plasma ratio))?
A: 0.3

Q: What about the concentration at 2 h ([1]; Study 4D, Cenobamate 30 mg/kg single oral dose, CF-1 mice, read-out: Mean Brain) of the same compound?
A: 71.3 µM

Q: What about the concentration at 2 h ([1]; Study 4D, Cenobamate 30 mg/kg single oral dose, CF-1 mice, read-out: Mean Plasma) of the same compound?
A: 237 µM

Q: And the “Mean Brain, Cenobamate” value ([1]; Study 4F, Cenobamate 5 mg/kg PO (2 h) in combination with Compound A 2 mg/kg PO (0.5 h))?
A: 14.7 µM

Q: What about the “Mean Brain, Cenobamate” value ([1]; Study 4G, Cenobamate 5 mg/kg PO (2 h) in combination with Compound A 0.5 mg/kg PO (0.5 h)) of the same compound?
A: 18.1 µM

Q: And the “Mean Brain, Cenobamate” value ([1]; Study 4G, Cenobamate 5 mg/kg PO (2 h) in combination with Compound A 1 mg/kg PO (0.5 h))?
A: 17.0 µM

Q: What about the “Fraction with Behavioral Signs” value ([2]; Study 4D, Cenobamate 3 mg/kg single oral dose) of the same compound?
A: 0/8

Q: And the “Fraction with Behavioral Signs” value ([2]; Study 4D, Cenobamate 10 mg/kg single oral dose)?
A: 0/8

Q: And the “Fraction with Behavioral Signs” value ([2]; Study 4D, Cenobamate 30 mg/kg single oral dose)?
A: 0/8

Q: And the “Fraction with Behavioral Signs” value ([2]; Study 4E, Cenobamate 3 mg/kg single oral dose)?
A: 0/8

Q: What about the “Fraction with Behavioral Signs” value ([2]; Study 4E, Cenobamate 5 mg/kg single oral dose) of the same compound?
A: 0/8

Q: And the “Fraction with Behavioral Signs” value ([2]; Study 4E, Cenobamate 7.5 mg/kg single oral dose)?
A: 0/8

Q: What about the “Fraction with Behavioral Signs” value ([2]; Study 4F, Cenobamate 5 mg/kg PO alone) of the same compound?
A: 0/8
